Source: publication PMC7600264, “Quasi-Irreversible Inhibition of CYP2D6 by Berberine” (Pharmaceutics, 2020)
Where two headings read alike, the source gives them in different places.

Key:
CYP2A6 = biological target: T1, CYP2A6 (Homo sapiens, UniProt P11509); assay: Direct CYP inhibition assay using pooled HLM
T1 sequence (P11509 1-494): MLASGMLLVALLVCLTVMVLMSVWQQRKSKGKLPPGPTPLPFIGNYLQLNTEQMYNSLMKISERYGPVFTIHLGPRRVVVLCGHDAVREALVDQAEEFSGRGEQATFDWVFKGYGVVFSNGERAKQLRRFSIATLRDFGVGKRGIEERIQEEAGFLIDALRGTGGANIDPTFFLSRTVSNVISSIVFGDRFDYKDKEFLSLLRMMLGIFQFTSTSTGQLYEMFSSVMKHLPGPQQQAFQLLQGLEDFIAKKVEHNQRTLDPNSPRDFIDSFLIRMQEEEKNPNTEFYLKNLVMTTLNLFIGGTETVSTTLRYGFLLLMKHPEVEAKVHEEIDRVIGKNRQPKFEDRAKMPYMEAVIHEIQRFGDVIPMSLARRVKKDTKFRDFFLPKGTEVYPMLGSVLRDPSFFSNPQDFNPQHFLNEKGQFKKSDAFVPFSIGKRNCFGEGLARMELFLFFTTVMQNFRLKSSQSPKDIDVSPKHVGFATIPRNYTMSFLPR
Protocol: (§1) The enzyme reactions were initiated by adding NADPH (1 mM), and the mixtures were incubated at 37 °C for 5 min in a shaking water bath (100 rpm). The reaction was terminated by adding ice-cold acetonitrile (ACN) containing CBZ (100 nM) and 4-methyl-umbelliferone (300 nM) as internal standards (IS).
(§2) The chromatographic separation was performed on an Agilent 1200 series HPLC system (Agilent Technologies, Santa Clara, CA, USA) equipped with an Atlantis^TM dC18 column (2.1 × 50 mm, 3 µm; Waters Corporation, Milford, MA, USA) with a SecuityGuard^TM C18 guard column (2.0 × 4.0 mm; Phenomenex, Torrance, CA, USA). The mobile phases consisted of double-deionized water (DDW) containing 0.1% (v/v) of formic acid (A) and ACN containing 0.1% (v/v) formic acid (B). […] The sample injection volume was 10 µL, and the total run time was 9.0 min. The column and auto-sampler compartments were maintained at 30 °C and 10 °C, respectively, throughout the analysis. The detection was performed using an API4000 Q-TRAP system equipped with a Turbo V Ion Spray^TM source (Applied Biosystems, Foster City, CA, USA). The operating conditions were optimized as follows: ionization voltage: 5500 V for positive-ion mode and −4500 V for negative-ion mode; ion source temperature: 550 °C; nebulizing gas flow: 50 L/min; auxiliary gas flow: 40 L/min; and curtain gas flow: 30 L/min. The samples were analyzed via multiple reaction monitoring (MRM) mode. […] The data acquisition and processing were performed using Analyst^TM software (version 1.5.2; Applied Biosystems, Foster City, CA, USA).

CYP2C8 = biological target: T2, CYP2C8 (Homo sapiens, UniProt P10632); assay: Direct CYP inhibition assay using pooled HLM
T2 sequence (P10632 1-490): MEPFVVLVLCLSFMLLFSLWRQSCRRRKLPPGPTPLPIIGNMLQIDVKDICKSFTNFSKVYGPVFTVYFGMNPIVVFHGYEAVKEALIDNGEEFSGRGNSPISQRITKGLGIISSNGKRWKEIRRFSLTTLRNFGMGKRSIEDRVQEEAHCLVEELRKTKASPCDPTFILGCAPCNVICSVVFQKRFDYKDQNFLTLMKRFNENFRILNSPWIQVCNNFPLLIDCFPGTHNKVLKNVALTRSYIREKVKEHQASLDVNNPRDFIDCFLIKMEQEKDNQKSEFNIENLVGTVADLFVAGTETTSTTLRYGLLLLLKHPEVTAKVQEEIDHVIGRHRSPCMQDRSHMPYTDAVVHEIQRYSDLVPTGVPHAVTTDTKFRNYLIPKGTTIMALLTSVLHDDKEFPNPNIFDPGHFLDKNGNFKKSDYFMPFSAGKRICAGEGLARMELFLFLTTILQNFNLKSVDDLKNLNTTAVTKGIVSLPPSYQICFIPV
Protocol: as §1, §2

CYP1A2 = biological target: T3, CYP1A2 (Homo sapiens, UniProt P05177); assay: Direct CYP inhibition assay using pooled HLM
T3 sequence (P05177 1-516): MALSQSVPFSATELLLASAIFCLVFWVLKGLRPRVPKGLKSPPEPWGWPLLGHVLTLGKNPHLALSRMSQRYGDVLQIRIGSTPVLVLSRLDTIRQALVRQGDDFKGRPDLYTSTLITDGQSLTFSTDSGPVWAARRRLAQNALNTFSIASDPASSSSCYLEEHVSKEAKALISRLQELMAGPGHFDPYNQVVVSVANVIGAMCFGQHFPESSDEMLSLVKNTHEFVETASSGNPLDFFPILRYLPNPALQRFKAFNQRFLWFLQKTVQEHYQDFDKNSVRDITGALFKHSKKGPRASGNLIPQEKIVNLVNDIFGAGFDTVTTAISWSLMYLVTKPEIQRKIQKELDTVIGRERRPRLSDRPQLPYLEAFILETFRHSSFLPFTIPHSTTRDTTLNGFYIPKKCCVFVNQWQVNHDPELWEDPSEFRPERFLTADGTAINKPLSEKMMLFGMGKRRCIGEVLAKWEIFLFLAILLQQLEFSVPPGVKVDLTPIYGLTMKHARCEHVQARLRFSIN
Protocol: as §1, §2

CYP2B6 = biological target: T4, CYP2B6 (Homo sapiens, UniProt P20813); assay: Direct CYP inhibition assay using pooled HLM
T4 sequence (P20813 1-491): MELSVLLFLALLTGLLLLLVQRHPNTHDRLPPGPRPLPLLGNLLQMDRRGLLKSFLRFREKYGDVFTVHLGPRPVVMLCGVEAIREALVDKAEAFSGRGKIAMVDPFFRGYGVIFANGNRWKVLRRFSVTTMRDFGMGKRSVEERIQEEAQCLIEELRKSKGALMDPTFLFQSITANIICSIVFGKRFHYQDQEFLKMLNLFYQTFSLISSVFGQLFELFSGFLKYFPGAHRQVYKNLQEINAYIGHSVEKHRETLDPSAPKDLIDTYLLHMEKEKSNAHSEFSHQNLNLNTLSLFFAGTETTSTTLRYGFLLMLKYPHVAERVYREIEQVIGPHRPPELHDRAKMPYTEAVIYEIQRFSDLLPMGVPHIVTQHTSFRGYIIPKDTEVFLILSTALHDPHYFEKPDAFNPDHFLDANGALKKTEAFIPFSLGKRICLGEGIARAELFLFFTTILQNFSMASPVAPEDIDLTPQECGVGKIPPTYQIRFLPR
Protocol: as §1, §2

CYP2E1 = CYP2E1 (Homo sapiens, UniProt P05181); assay: Direct CYP inhibition assay using pooled HLM
Protocol: as §1, §2

CYP2C19 = CYP2C19 (Homo sapiens, UniProt P33261); assay: Direct CYP inhibition assay using pooled HLM
Protocol: as §1, §2

CYP2C9 = CYP2C9 (Homo sapiens, UniProt P11712); assay: Direct CYP inhibition assay using pooled HLM
Protocol: as §1, §2

[1] = Metabolic stability and metabolite formation of BBR in pooled HLM; settings: BBR 1 µM in pooled HLM with NADPH-generating system, mean ± SD
Protocol: To evaluate NADPH-dependent metabolism, BBR (1 µM) was incubated with pooled HLM (1 mg/mL) in the presence of the NADPH-regenerating system (1 mM of NADP^+, 5 mM of G6P, and 1 U/mL of G6PDH) to be a final volume of 200 µL. The reactions were quenched by adding the same volume of ice-cold ACN containing CBZ (100 nM) at 0, 7.5, 15, 30, 60, and 120 min of incubation. The incubation mixtures were centrifuged at 1000× g for 20 min at 4 °C, and the supernatants were analyzed by the LC-MS/MS system described in Section 2.2.
Meanwhile, to identify the known metabolites of BBR, an aliquot (5 µL) of the supernatant was injected into an accurate-MS system consisting of an Agilent 6530 Q-TOF LC/MS equipped with dual AJS ESI ion source (Agilent Technologies) and Agilent 1200 series HPLC system (Agilent Technologies). Chromatographic separations were performed on an Agilent Eclipse Plus C18 column (150 × 2.1 mm, 3.5 µm; Agilent Technologies) by gradient elution with a binary mobile phase consisting of DDW with 0.1% (v/v) formic acid (A) and ACN with 0.1% (v/v) formic acid (B) at a flow rate of 0.2 mL/min, where the mobile phase B was set as follows: 2% at 0 min, 20% at 15 min, and 30% at 20–25 min, followed by re-equilibration for 3 min.
In vitro metabolic stability parameters, including half-life (t1/2) and microsomal intrinsic clearance (CLint,mic), were determined according to our previous report [32]. The degradation t1/2 values of the microsomal stability studies were calculated using the following Equation (2):(2) t1/2=0.693/k, where k represents the first-order degradation rate constant. The k values were estimated by fitting a one-phase exponential decay model to the parent drug remaining (%) vs. incubation time plots using GraphPad Prism 5.0 (GraphPad Software Inc., San Diego, CA, USA).
The CLint,mic was determined using the in vitro half-life approach.

CYP2D6 [2] = biological target: T5, CYP2D6 (Homo sapiens, UniProt P10635); assay: Direct CYP inhibition assay using pooled HLM
Protocol: as §1, §2

CYP2D6 [3] = biological target: T5, CYP2D6; assay: Metabolism-dependent CYP2D6 inhibition assay (IC50 shift) using pooled HLM; settings: for MDI (metabolism-dependent inhibition) of CYP2D6 (in words): pre-incubation with NADPH
Protocol: Pre-incubation was performed in pooled HLM (0.2 mg/mL) added with BBR, THB, TFD, or DMB, or rhCYP2D6 (10 pmol/mL) added with BBR, with or without NADPH (1 mM) in phosphate buffer (0.1 M; pH 7.4) for 30 min. Then, the CYP2D6 substrate (5 µM of dextromethorphan) and NADPH (1 mM) were added to the mixture and incubated for another 10 min. All incubations were carried out at 37 °C in a shaking water bath (100 rpm) using eight-well tube strips placed in an 8 × 12 rack, where the final volume of each reaction mixture was 200 µL. […] The enzyme reactions were quenched by adding an aliquot (200 µL) of ice-cold ACN containing CBZ (100 nM) as an IS. The samples were centrifuged, and the concentration of CYP2D6 metabolite (i.e., dextrorphan, produced by O-demethylation of dextromethorphan) in supernatants were analyzed using the LC-MS/MS method described in Section 2.2.

CYP3A4 = CYP3A4 (Homo sapiens, UniProt P08684); assay: Direct CYP inhibition assay using pooled HLM; settings: for IC50: direct inhibition, 95% confidence intervals in parentheses
Protocol: as §1, §2

[4] = format: in vitro ADME, human; settings: human, 1 µM
Protocol: Table 3. Putative M1 metabolite produced in pooled HLM incubated with thalifendine or
Precursor molecules Incubation time (min)a M1 signal at m/z 310 (103 × cps)b
Demethyleneberberine 0 107 ± 3
a Thalifendine or demethyleneberberine (1 μM) was incubated with pooled HLM in the presence of
NADPH-generating system; b Each value represents the mean ± SD for three separate samples. […]

[5] = test system: CYP enzymes (range over all CYP enzymes tested); assay: Direct CYP inhibition assay using pooled HLM, all CYP enzymes tested; format: in vitro ADME, human; settings: human, pooled human liver microsomes, pH 7.4, read-out: IC50 values, range over all CYP enzymes tested (pan-CYP inhibitory activities)
Protocol: as §1
The chromatographic separation was performed on an Agilent 1200 series HPLC system (Agilent Technologies, Santa Clara, CA, USA) equipped with an Atlantis^TM dC18 column (2.1 × 50 mm, 3 µm; Waters Corporation, Milford, MA, USA) with a SecuityGuard^TM C18 guard column (2.0 × 4.0 mm; Phenomenex, Torrance, CA, USA). The mobile phases consisted of double-deionized water (DDW) containing 0.1% (v/v) of formic acid (A) and ACN containing 0.1% (v/v) formic acid (B). […] The sample injection volume was 10 µL, and the total run time was 9.0 min. The column and auto-sampler compartments were maintained at 30 °C and 10 °C, respectively, throughout the analysis. The detection was performed using an API4000 Q-TRAP system equipped with a Turbo V Ion Spray^TM source (Applied Biosystems, Foster City, CA, USA). […] The samples were analyzed via multiple reaction monitoring (MRM) mode. […]

[6] = IC50 CYP3A4 (MDZ), substrate MDZ
[7] = IC50 CYP3A4 (TST), substrate TST

CYP2E1, sequence (P05181 whole entry): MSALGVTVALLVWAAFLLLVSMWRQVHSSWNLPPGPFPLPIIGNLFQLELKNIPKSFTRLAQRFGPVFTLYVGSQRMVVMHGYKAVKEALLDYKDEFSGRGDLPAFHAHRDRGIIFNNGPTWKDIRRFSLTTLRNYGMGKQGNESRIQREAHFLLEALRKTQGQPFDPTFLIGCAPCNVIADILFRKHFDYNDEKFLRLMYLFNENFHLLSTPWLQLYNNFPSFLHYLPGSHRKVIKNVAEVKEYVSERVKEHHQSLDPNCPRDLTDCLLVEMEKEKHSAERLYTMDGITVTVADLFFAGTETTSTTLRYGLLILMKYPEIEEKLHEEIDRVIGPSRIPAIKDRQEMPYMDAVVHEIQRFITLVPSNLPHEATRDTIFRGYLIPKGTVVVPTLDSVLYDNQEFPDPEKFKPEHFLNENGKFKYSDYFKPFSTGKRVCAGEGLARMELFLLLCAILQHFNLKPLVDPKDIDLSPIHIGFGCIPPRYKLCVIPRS
T5 sequence (P10635 whole entry): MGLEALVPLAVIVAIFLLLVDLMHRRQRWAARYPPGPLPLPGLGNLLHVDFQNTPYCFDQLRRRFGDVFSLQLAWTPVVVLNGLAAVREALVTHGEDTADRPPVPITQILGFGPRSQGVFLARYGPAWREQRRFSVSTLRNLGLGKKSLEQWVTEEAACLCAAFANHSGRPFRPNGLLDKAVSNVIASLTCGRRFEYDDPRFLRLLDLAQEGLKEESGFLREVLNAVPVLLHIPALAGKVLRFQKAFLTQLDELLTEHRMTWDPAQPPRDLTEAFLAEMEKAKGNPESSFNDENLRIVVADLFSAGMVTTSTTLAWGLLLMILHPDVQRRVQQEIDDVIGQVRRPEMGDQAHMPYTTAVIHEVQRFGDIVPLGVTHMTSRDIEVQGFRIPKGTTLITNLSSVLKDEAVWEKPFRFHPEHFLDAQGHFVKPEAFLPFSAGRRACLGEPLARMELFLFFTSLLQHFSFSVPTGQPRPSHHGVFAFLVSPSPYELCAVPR
CYP3A4, sequence (P08684 whole entry): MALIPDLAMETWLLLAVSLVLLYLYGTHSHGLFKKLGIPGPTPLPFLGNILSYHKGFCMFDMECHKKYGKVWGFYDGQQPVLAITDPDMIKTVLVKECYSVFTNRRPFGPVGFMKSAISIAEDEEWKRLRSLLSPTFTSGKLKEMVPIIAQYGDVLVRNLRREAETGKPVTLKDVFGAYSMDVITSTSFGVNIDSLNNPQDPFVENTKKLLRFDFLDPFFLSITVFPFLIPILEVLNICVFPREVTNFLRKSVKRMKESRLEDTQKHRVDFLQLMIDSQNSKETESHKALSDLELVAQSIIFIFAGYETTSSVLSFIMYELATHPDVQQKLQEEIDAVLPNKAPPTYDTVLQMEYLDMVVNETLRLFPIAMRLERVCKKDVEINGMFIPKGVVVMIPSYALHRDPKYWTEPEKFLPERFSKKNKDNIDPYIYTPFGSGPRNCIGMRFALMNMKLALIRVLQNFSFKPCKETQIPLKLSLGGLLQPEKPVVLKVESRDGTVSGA
CYP2C19, sequence (P33261 whole entry): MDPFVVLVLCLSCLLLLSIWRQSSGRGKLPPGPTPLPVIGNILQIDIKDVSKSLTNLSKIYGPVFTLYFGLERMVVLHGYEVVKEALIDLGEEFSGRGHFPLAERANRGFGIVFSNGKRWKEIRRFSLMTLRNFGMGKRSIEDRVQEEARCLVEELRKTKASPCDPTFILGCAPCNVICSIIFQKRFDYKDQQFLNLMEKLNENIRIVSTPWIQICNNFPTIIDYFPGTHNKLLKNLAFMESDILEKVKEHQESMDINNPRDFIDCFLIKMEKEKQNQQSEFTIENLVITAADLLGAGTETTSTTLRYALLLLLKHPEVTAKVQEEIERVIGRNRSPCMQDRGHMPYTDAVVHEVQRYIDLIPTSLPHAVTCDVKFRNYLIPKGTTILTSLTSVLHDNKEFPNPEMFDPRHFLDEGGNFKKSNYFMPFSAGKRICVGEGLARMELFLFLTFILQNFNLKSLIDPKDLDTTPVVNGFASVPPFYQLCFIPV
CYP2C9, sequence (P11712 whole entry): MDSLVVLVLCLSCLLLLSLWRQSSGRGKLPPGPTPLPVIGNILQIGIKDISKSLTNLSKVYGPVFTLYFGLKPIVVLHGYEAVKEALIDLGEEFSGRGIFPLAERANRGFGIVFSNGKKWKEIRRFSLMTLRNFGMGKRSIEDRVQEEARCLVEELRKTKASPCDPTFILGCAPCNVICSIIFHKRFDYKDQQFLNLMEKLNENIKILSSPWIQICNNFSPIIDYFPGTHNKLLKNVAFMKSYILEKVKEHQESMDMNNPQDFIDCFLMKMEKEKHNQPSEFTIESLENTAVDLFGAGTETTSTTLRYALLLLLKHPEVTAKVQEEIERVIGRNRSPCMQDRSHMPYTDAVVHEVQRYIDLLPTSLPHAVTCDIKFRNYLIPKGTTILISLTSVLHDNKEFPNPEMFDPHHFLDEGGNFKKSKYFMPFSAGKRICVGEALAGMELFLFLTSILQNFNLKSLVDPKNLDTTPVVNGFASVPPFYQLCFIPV

Compound	IC50 (CYP2A6)	IC50 (CYP2C8)	IC50 (CYP1A2)	IC50 (CYP2B6)	IC50 (CYP2E1)	IC50 (CYP2C19)	IC50 (CYP2C9)	Concentration in incubation mixture (elimination of BBR and formation of its metabolites) ([1]; 0 min)	Concentration in incubation mixture (elimination of BBR and formation of its metabolites) ([1]; 7.5 min)	Concentration in incubation mixture (elimination of BBR and formation of its metabolites) ([1]; 15 min)	Concentration in incubation mixture (elimination of BBR and formation of its metabolites) ([1]; 30 min)	Concentration in incubation mixture (elimination of BBR and formation of its metabolites) ([1]; 60 min)	Concentration in incubation mixture (elimination of BBR and formation of its metabolites) ([1]; 120 min)	IC50 (CYP2D6 [2])	MDI (metabolism-dependent inhibition) of CYP2D6 (in words) (CYP2D6 [3]; pooled HLM)	IC50 (CYP3A4; [6])	IC50 (CYP3A4; [7])	other results
COc1cc2c(cc1O)CC[n+]1cc3c(OC)c(OC)ccc3cc1-2 [JTZ, jatrorrhizine]	> 100 µM	26 µM	> 100 µM	> 100 µM	11 µM	> 100 µM	> 100 µM	0.0104 ± 0.0003 µM	0.0107 ± 0.0001 µM	0.0109 ± 0.0003 µM	0.0105 ± 0.0003 µM	0.01 ± 0.0002 µM	0.0096 ± 0.0002 µM	10 µM				
COc1ccc2c(c1OC)CN1CCc3cc4c(cc3C1C2)OCO4 (stereo not drawn) [THB, tetrahydroberberine]															exhibited MDI			Inhibition of CYP2A6 (in words) (CYP2A6; pooled HLM, up to 100 µM): not markedly inhibited; Inhibition of CYP2C8 (in words) (CYP2C8; pooled HLM, up to 100 µM): not markedly inhibited; Inhibition of CYP1A2 (in words) (CYP1A2; pooled HLM, up to 100 µM): not markedly inhibited; Inhibition of CYP2B6 (in words) (CYP2B6; pooled HLM, up to 100 µM): not markedly inhibited; Inhibition of CYP2E1 (in words) (CYP2E1; pooled HLM, up to 100 µM): not markedly inhibited; Inhibition of CYP2C19 (in words) (CYP2C19; pooled HLM, up to 100 µM): not markedly inhibited; Inhibition of CYP2C9 (in words) (CYP2C9; pooled HLM, up to 100 µM): not markedly inhibited; Fold reduction in IC50 against CYP2D6 (IC50 shift) (CYP2D6 [3]; pooled HLM, pre-incubation with vs without NADPH): 2.2 fold; IC50 (CYP2D6 [3]; read-out: IC50 against CYP2D6, pre-incubation with NADPH, pooled HLM, 30 min pre-incubation with NADPH): 0.306 µM; IC50 (CYP2D6 [3]; read-out: IC50 against CYP2D6, pre-incubation without NADPH, pooled HLM, 30 min pre-incubation without NADPH): 0.661 µM; Inhibition of CYP3A4 (in words) (CYP3A4; up to 100 µM, substrates MDZ and TST): not markedly inhibited; IC50 (CYP2D6 [2]; read-out: IC50 CYP2D6, pooled HLM, direct inhibition, substrate dextromethorphan, 95% confidence intervals in parentheses): 0.97 µM
demethylene-TFD [M1]																		M1 (m/z = 310) signal formed from BBR ([1]; 0 min): 1.3 ± 0.25 1000 × cps; M1 (m/z = 310) signal formed from BBR ([1]; 7.5 min): 28 ± 0.66 1000 × cps; M1 (m/z = 310) signal formed from BBR ([1]; 15 min): 80 ± 0.31 1000 × cps; M1 (m/z = 310) signal formed from BBR ([1]; 30 min): 220 ± 2.6 1000 × cps; M1 (m/z = 310) signal formed from BBR ([1]; 60 min): 540 ± 15 1000 × cps; M1 (m/z = 310) signal formed from BBR ([1]; 120 min): 1100 ± 26 1000 × cps
COc1c(O)ccc2cc3[n+](cc12)CCc1cc2c(cc1-3)OCO2 [TFD, thalifendine]	> 100 µM	> 100 µM	> 100 µM	> 100 µM	32 µM	> 100 µM	> 100 µM	0.0054 ± 0.0001 µM	0.0209 ± 0.0004 µM	0.0333 ± 0.0006 µM	0.0443 ± 0.001 µM	0.0504 ± 0.0007 µM	0.0493 ± 0.001 µM	28 µM	exhibited MDI	> 100 µM	> 100 µM	IC50 (CYP2D6 [3]; IC50 against CYP2D6, pre-incubation with NADPH, pooled HLM, 30 min pre-incubation with NADPH): 6.49 µM; IC50 (CYP2D6 [3]; IC50 against CYP2D6, pre-incubation without NADPH, pooled HLM, 30 min pre-incubation without NADPH): 20.6 µM; IC50 shift at 10 min (CYP2D6 [3]; human, pooled human liver microsomes, pH 7.4, probe dextromethorphan (5 µM)): 3.2; M1 signal at m/z 310 ([4]; 0 min): 6 ± 1 103 × cps; M1 signal at m/z 310 ([4]; 30 min): 2200 ± 125 103 × cps
COc1ccc2cc3[n+](cc2c1O)CCc1cc2c(cc1-3)OCO2 [BRB, berberrubine]	17 µM	72 µM	51 µM	96 µM	34 µM	49 µM	57 µM	0.0054 ± 0.0001 µM	0.0056 ± 0 µM	0.0058 ± 0.0001 µM	0.006 ± 0.0001 µM	0.0061 ± 0 µM	0.0062 ± 0 µM	45 µM		28 µM	45 µM	IC50 at 5 min [5]: 17 to 96 µM
